Patent US20060106015A1, “Novel use of benzothiazole derivatives” (priority 2002, published 2006)

Target: T1, recombinant human Itk kinase domain fused with GST (Homo sapiens, UniProt Q08881)
T1 construct: recombinant human Itk kinase domain fused with GST; GST (Glutathione S-Transferase); made in house; host or cells: High five insect cells
T1 sequence (Q08881 363-615 limits assumed): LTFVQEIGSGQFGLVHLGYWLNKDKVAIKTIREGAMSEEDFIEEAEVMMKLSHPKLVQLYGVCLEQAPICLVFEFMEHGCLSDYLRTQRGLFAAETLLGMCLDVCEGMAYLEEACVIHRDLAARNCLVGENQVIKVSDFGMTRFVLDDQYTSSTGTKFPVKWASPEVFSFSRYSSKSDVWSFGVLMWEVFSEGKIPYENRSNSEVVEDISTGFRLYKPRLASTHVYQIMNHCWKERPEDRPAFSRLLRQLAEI
Experiment: Itk LANCE TRF Assay
Format: biochemical
Details: 50 μM ATP, 2 μM peptide substrate, 50 minutes RT; read-out: Inhibition of Kinase Itk (IC50 μM)
Procedure: The Itk kinase assay utilized recombinant human Itk kinase domain fused with GST (Glutathione S-Transferase). The protein was expressed in High five insect cells, purified in one step on an affinity chromatography glutathione column and stored in 50 mM Tris/HCl (pH 7.6), 150 mM NaCl, 5% (w/v) mannitol, 1 mM DTT, 30% glycerol at −70° C. The kinase substrate used in the assay was a biotinylated peptide derived from the Src-optimal substrate (Nair et al, J. Med. Chem., 38: 4276, 1995; biotin-AEEEIYGEFEAKKKK).
The assay additions were as follows: Test compounds (or controls; 1 μL in 100% DMSO) were added to black 96-well flat-bottomed plates (Greiner 655076) followed by 20 μL Itk in assay buffer and the reaction was started by adding 20 μL ATP and peptide substrate in assay buffer. The assay buffer constitution during phosphorylation was: 50 mM HEPES (pH 6.8), 10 mM MgCl2, 0.015% Brij 35, 1 mM DTT, 10% glycerol, 160 ng/well Itk, 2 μM peptide substrate and 50 μM ATP. The assay was stopped after 50 minutes (RT) by adding 150 μL ice-cold Stop solution (50 mM Tris/HCl, pH 7.5, 10 mM EDTA, 0.9% NaCl and 0.1% BSA) together with LANCE reagents (2 nM PT66-Eu^3+, Wallac AD0069 and 5 μg/ml Streptavidin-APC, Wallac AD0059. Both concentrations were final in stopped assay solution). The plates were measured on a Wallac 1420 Victor 2 instrument with TRF settings after 1 h incubation, and the ratio (665 signal/615 signal)*10000 was used to calculate the inhibition values. IC50 values were determined using XLfit.

IC50 [µM] | Structure (SMILES)
0.94 | O=C(NCCCN1CCOCC1)c1ccc2nc(-c3ccc(Cl)cc3O)sc2c1 [Example 6, 2-(4-Chloro-2-hydroxyphenyl)-N-(3-morpholin-4-ylpropyl)-1,3-benzothiazole-6-carboxamide]
3.04 | OCc1ccc2nc(-c3ccccc3O)sc2c1 [Example 44, 2-[6-(Hydroxymethyl)-1,3-benzothiazol-2-yl]phenol]
1.47 | Oc1ccc(Cl)cc1-c1nc2ccc(CN3CCCC3)cc2s1 [Example 34, 4-Chloro-2-[6-(pyrrolidin-1-ylmethyl)-1,3-benzothiazol-2-yl]phenol]
